Square brackets hold non-standard residues; d marks the D form. Peptide text beside a SMILES is read from it.
Experiment: Pharmacokinetics after a single IV dose in rats
Conditions: male, Sprague-Dawley, rat, in vivo, equivalent protein mass of 1.0 mg/kg
Description: The weight range of the animals was 311-346 grams. All animals were food fasted overnight. […] The predose sample was collected from the JVC.
Following the last collection point, the animals were euthanized.

CC[C@H](C)[C@H](NC(=O)[C@H](C)NC(=O)[C@H](CCCCN)NC(=O)[C@H](CC(C)C)NC(=O)[C@H](C)NC(=O)[C@@H](NC(=O)[C@H](Cc1c[nH]cn1)NC(=O)[C@H](CC(C)C)NC(=O)[C@@H](NC(=O)[C@@H](NC(=O)[C@H](CCCCN)NC(=O)[C@@H](C)NC(=O)[C@H](C)NC(=O)[C@H](CO)NC(=O)[C@H](CCCCN)NC(=O)[C@H](Cc1ccccc1)NC(=O)[C@@H](NC(=O)[C@H](CCCCN)NC(=O)[C@H](CC(C)C)NC(=O)[C@H](Cc1ccccc1)NC(=O)[C@H](CO)NC(=O)[C@H](CCCCN)NC(=O)[C@H](Cc1c[nH]c2ccccc12)NC(=O)[C@H](CCCCN)NC(C)=O)[C@@H](C)O)[C@@H](C)O)C(C)C)[C@@H](C)O)C(=O)N[C@@H](CO)C(=O)N[C@@H](CO)C(N)=O [V681 (V13AD)] (Ac-KWKSFLKTFKSA[dA]KTVLHTALKAISS-NH2)
AUC(0-inf): 7210 ± 1430 ng·h/mL
Cmax: 16500 ± 9670 ng/mL
MRT: 19.8 ± 4.8 min
clearance: 2.37 mL/min/kg
half-life: 36.6 ± 23.4 min
Vd (read-out: Vss): 0.0477 ± 0.018 L/kg

From patent publication US20110165113A1, “POLYMER CONJUGATES OF V681-LIKE PEPTIDES” (Nektar Therapeutics, priority 2008, published 2011)
